Our source for the IC50 and inhibition values is the Kinase Knowledgebase extract (Sharma et al. 2016).

Structures are written as SMILES.

Broadly, the IC50 is the concentration that gives 50% inhibition. A high value points to weaker potency in that assay. A word on the inhibition: it is the relative decrease from the control value, in per cent.

Targets include PIK3CD (Human) (UniProt O00329); PIK3CG (human) (UniProt P48736); EGFR (human) (UniProt P00533); PIK3CA (human) (UniProt P42336); PIK3CB (Human) (UniProt P42338).
The target of a further test is MAPK14 (human) (UniProt Q16539). The conditions noted are these: concentration not given here.
For a further test, the target named is CDK2 (human) (UniProt P24941). The conditions noted are these: for inhibition: concentration not given here.

MAPK14 (human), sequence (Q16539 whole entry, looked up): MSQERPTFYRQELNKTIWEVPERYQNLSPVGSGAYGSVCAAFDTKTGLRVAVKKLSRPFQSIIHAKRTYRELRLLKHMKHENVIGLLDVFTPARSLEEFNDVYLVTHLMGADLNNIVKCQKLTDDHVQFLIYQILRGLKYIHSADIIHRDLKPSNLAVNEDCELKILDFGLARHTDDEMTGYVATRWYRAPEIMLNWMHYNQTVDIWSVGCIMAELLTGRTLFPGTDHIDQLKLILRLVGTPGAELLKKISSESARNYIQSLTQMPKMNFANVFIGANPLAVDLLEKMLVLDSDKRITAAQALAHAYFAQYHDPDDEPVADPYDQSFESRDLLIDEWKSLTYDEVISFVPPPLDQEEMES
PIK3CB (Human), sequence (P42338 whole entry, looked up): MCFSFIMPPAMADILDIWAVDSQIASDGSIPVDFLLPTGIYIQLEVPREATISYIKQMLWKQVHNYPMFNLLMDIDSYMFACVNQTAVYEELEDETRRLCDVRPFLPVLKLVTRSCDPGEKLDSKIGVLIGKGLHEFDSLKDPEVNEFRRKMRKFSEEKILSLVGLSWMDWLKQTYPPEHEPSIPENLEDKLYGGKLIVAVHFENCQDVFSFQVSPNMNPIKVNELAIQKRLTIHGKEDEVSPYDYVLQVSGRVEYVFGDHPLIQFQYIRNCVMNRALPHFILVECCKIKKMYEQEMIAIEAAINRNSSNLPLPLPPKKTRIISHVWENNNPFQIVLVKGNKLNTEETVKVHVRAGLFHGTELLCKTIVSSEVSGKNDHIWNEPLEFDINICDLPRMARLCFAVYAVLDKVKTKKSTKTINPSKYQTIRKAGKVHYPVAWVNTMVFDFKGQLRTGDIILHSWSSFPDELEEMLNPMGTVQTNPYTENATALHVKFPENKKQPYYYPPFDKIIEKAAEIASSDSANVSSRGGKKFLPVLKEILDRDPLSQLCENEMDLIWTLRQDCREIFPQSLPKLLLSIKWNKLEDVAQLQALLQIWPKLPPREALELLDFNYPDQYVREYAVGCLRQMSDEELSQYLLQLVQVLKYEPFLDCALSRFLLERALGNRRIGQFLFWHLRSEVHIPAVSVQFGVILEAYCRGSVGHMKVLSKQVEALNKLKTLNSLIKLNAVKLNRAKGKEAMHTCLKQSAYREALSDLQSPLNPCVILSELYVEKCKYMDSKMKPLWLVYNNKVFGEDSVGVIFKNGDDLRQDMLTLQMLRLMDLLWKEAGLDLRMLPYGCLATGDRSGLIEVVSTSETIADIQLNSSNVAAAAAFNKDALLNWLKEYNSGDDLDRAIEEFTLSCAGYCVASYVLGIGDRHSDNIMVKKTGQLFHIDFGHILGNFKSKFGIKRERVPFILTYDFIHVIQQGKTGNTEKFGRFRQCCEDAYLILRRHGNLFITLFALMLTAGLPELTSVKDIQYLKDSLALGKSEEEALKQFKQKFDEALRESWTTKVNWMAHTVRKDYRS
EGFR (human), sequence (P00533 whole entry, looked up): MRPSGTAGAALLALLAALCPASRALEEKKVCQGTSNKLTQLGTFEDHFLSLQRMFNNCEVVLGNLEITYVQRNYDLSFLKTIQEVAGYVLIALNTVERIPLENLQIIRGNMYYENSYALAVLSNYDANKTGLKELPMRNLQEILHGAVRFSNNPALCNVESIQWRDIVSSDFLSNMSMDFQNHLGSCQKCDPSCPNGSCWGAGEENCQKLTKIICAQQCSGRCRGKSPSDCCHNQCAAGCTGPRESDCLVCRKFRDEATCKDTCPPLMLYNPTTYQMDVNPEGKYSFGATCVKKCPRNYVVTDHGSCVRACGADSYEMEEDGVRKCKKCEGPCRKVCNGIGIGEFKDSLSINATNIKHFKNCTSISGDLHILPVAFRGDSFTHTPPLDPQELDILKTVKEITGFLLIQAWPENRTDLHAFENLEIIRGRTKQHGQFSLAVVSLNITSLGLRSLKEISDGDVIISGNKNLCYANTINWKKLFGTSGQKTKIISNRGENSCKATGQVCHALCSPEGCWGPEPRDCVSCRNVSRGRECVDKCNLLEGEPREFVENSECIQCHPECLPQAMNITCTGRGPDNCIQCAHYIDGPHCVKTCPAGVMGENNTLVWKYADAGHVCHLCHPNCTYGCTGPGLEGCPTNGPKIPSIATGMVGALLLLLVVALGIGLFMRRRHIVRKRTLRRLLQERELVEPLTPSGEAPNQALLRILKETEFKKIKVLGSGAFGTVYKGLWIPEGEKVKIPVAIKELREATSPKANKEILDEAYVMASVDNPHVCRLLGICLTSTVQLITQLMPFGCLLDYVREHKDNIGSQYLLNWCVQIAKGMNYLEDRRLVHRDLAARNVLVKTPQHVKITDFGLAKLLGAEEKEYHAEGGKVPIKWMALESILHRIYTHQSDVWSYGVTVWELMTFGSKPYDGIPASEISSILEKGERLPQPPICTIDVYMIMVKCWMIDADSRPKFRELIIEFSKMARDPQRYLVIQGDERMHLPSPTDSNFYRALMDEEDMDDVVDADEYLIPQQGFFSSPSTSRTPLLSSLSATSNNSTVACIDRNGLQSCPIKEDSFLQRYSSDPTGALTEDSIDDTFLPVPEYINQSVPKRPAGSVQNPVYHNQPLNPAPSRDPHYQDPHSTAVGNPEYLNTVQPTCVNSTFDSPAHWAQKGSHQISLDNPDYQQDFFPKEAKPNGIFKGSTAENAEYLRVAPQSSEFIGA
PIK3CD (Human), sequence (O00329 whole entry, looked up): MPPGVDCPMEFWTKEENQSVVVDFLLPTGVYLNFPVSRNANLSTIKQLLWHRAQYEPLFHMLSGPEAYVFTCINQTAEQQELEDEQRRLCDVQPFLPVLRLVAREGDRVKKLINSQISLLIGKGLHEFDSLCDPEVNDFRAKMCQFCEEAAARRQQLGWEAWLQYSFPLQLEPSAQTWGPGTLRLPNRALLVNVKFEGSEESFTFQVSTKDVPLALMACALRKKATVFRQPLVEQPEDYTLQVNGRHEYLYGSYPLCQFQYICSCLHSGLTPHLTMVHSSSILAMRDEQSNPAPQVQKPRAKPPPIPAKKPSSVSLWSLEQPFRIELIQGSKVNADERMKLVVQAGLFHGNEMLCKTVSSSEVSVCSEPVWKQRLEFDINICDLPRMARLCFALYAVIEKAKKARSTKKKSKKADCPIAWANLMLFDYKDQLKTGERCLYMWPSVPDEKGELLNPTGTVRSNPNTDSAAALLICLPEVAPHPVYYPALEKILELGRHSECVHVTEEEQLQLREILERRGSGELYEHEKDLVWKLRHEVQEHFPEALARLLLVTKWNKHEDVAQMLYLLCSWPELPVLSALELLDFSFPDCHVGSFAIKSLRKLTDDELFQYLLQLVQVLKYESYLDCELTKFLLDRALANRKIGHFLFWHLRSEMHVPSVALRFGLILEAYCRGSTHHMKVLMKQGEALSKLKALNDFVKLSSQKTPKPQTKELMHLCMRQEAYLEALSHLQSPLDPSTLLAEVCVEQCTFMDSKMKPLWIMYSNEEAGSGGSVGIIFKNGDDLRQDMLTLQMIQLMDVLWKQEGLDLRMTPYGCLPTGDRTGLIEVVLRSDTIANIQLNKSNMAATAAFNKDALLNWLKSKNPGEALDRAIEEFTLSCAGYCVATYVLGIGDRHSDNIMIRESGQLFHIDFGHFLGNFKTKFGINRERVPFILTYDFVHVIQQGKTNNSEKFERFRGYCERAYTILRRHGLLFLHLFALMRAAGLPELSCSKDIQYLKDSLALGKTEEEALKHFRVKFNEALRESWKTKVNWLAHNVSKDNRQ
PIK3CG (human), sequence (P48736 whole entry, looked up): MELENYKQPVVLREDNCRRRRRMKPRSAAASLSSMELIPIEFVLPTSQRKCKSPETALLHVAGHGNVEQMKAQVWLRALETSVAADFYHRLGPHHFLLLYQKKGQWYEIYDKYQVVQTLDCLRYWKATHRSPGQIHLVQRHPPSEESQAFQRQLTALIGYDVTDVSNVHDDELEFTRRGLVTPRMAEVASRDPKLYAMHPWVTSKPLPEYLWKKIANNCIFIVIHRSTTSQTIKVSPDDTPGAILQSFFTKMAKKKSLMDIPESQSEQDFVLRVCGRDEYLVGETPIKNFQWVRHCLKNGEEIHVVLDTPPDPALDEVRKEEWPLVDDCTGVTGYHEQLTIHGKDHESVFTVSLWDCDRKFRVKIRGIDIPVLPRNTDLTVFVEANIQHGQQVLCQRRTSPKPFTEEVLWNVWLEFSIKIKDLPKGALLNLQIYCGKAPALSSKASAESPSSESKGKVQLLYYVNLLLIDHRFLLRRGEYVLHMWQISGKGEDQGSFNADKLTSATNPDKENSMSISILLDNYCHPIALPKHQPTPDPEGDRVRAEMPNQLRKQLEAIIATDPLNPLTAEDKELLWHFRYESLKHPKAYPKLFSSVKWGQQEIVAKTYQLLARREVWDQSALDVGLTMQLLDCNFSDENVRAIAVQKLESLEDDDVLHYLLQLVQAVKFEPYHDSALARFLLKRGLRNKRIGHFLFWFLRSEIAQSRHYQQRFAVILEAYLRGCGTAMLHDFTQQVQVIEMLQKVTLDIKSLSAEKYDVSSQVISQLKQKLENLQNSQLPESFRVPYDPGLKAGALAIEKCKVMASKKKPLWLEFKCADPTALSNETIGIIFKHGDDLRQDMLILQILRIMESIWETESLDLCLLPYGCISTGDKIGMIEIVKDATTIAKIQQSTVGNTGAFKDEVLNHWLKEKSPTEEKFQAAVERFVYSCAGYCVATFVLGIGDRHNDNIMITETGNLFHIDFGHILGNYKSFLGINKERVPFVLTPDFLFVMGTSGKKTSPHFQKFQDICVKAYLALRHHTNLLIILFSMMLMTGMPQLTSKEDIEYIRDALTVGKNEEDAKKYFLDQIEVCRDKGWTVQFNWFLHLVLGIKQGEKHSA

Regarding `CC(C)n1nc(-c2ccc3onc(N)c3c2)c2c(N)ncnc21`, the 50% inhibitory concentration (IC50) was below 1 µM against PIK3CD (Human); below 1 µM on PIK3CG (human); 1 to 50 µM on EGFR (human); below 1 µM against PIK3CA (human); 1 to 50 µM against PIK3CB (Human).

Regarding `Oc1cccc(-c2nc(N3CCOCC3)c3oc4ncccc4c3n2)c1`, the values for the inhibition against MAPK14 (human) and on CDK2 (human) were 0.2% and 1.5%, respectively.

`Cc1cc(C(C)Nc2ccccc2)c2oc(-c3ccncc3)cc(=O)c2c1` (stereo unspecified): the inhibition is -0.9% against MAPK14 (human) and -3.1% on CDK2 (human). Also, the IC50 on PIK3CB (Human) was determined as 0.12 µM.

In the case of `O=C(c1ccccc1)c1ccc(N2CCOCC2)cc1O`, the inhibition against MAPK14 (human) is -2.8%; at CDK2 (human) it was 0.3%.

In the case of `Cc1ccccc1-n1c(Cn2cnc3c(N)ncnc32)nc2cccc(C)c2c1=O`, the inhibition against MAPK14 (human) was -4.1%; against CDK2 (human) it was -2.4%.

`Cc1ccccc1Oc1cccc2c(=O)cc(N3CCOCC3)[nH]c12`: the inhibition against MAPK14 (human) was -1.2%; at CDK2 (human), -5.3%. Also, at PIK3CG (human), the IC50 is 100 µM.

Consider `COc1ccc2c(c1OC)N=C(NC(=O)c1cccnc1)N1CCN=C21`, for which the figures for the inhibition at MAPK14 (human) and against CDK2 (human) were 1.5% and -0.9%, respectively. In addition, the IC50 against EGFR (human) is above 50 µM.

Consider `Cc1ccccc1-n1c(Cn2ncc3c(N)ncnc32)nc2cccc(C)c2c1=O`, for which the IC50 against PIK3CD (Human) amounted to 0.24 µM; against PIK3CG (human) it was 10 µM; on PIK3CA (human), 100 µM; at PIK3CB (Human) it was 25 µM.

As to `CC(C)n1cc(-c2cc3cc(C=O)ccc3s2)c2c(N)ncnc21`, the IC50 against PIK3CD (Human) is 1 to 50 µM; at PIK3CG (human) it was 1 to 50 µM; on EGFR (human), above 50 µM; on PIK3CA (human), 1 to 50 µM; at PIK3CB (Human), 1 to 50 µM.

As for `Cc1ccc([N+](=O)[O-])cc1S(=O)(=O)N(C)N=Cc1cnc2ccc(Br)cn12`, the inhibition on MAPK14 (human) was -0.3%. The concentration for half-maximal inhibition (IC50) on CDK2 (human) is 1.2 µM; against PIK3CG (human), 0.076 µM.

Consider `CC(C)n1nc(-c2ccc(I)cc2)c2c(N)ncnc21`, for which the half-inhibitory concentration (IC50) was below 1 µM against PIK3CD (Human); 1 to 50 µM against PIK3CG (human); 1 to 50 µM against EGFR (human); 1 to 50 µM against PIK3CA (human); 1 to 50 µM against PIK3CB (Human).

`CC(=O)Nc1nc(C)c(-c2ccc(Cl)c(S(=O)(=O)NCCO)c2)s1`: the figures for the inhibition on MAPK14 (human) and against CDK2 (human) were -2.9% and 1.9%, respectively. Moreover, on PIK3CB (Human), the IC50 worked out at 0.59 µM.

As for `CC(C)n1nc(-c2cccc(C(=O)NC3C=NCS3)c2)c2c(N)ncnc21` (stereo unspecified), the concentration for half-maximal inhibition (IC50) at PIK3CD (Human) is below 1 µM; on PIK3CG (human), below 1 µM; on EGFR (human), below 1 µM; at PIK3CA (human) it was 1 to 50 µM; against PIK3CB (Human), 1 to 50 µM.

For `O=c1cc(-c2cccc3c2Sc2ccccc2S3)oc(N2CCOCC2)c1`, the inhibition was -1.4% on MAPK14 (human) and 2.6% against CDK2 (human). Moreover, the IC50 turned out to be 0.72 µM against PIK3CD (Human), 9.9 µM at PIK3CG (human), 3.3 µM at PIK3CA (human) and 1.2 µM at PIK3CB (Human).

With `COc1ccccc1-n1c(CSc2ncnc3[nH]cnc23)nc2cccc(Cl)c2c1=O`, the inhibition at MAPK14 (human) is -8.5%; against CDK2 (human) it was -5.6%.

For the molecule `O=C1NC(=S)S/C1=C/c1ccc2c(c1)N(Cc1ccc(F)c(Cl)c1)C(=O)CO2`, the inhibition on MAPK14 (human) is -2.6%; on CDK2 (human) it was -4.9%. Also, the concentration for half-maximal inhibition (IC50) on PIK3CB (Human) came out at 1.1 µM.
